Series [1] in a line: Metabolic stability in rat liver microsomes. Format: in vitro ADME. As to conditions: for microsomal CLint / half-life: pH 7.4, 0.5 mg/mL protein; for microsomal CLint: read-out: Rat Liver microsome Clearance; for half-life: read-out: Rat Liver microsome T1/2. As to the method:
Metabolic stability assessment: Compounds were incubated with rat liver microsomes at 37° C. for a total of 45 minutes. The reaction was performed at pH 7.4 in 100 mM potassium phosphate buffer containing 0.5 mg/mL of rat liver microsomal protein. Phase I metabolism was assessed by adding NADPH to a final concentration of 1 mM and collecting samples at time points 0, 5, 15, 30 and 45 minutes. All collected samples were quenched 1:1 with ice-cold stop solution (1 μM labetalol and 1 μM glyburide in acetonitrile) and centrifuged to remove precipitated protein. Resulting supernatants were further diluted 1:4 with acetonitrile:water (1:1). Samples were analyzed by LC/MS/MS and calculations for half-life, and in-vitro clearance were accomplished using Microsoft Excel (2007).
(Microsomes from liver hold many membrane-bound enzymes, among them those of drug oxidation.)

For series [2], the target named is T1, Human CB1 (Homo sapiens (Human), UniProt P21554). In words: Calcium mobilization assay (antagonist mode vs CP55,940). As to conditions: CHO-RD-HGA16 cells stably expressing human CB1; against EC50 concentration of CP55,940; mean ± SEM, at least three experiments. It counts as cell-based. As to the method: Calcium Mobilization Assay: CHO-RD-HGA16 cells (Molecular Devices, San Jose, California, United States of America) stably expressing the human CB1 receptor were plated into 96-well black-walled assay plates at 25,000 cells/well in 100 μL of Ham's F12 (supplemented with 10% fetal bovine serum, 100 units of penicillin/streptomycin, and 100 μg/mL Normocin) and incubated overnight at 37° C., 5% CO2. Calcium 5 dye (Molecular Devices, San Jose, California, United States of America) was reconstituted according to the manufacturer's instructions. The reconstituted dye was diluted 1:40 in prewarmed (37° C.) assay buffer (lx HBSS, 20 mM HEPES, 2.5 mM probenecid, pH 7.4 at 37° C.). Growth medium was removed, and the cells were gently washed with 100 μL of prewarmed (37° C.) assay buffer. […] After the pretreatment incubation period, the plate was read with a FLIPR Tetra (Molecular Devices, San Jose, California, United States of America). […] Relative fluorescence units (RFU) were plotted against the log of compound concentrations. […] Test compound RFUs were compared to the CP55,940 Emax RFUs to generate % Emax values. For the CB2 agonist and antagonist assays, the same procedures were followed except that stable human CB2—CHO-RD-HGA16 cells were used.
T1 sequence (P21554 whole entry): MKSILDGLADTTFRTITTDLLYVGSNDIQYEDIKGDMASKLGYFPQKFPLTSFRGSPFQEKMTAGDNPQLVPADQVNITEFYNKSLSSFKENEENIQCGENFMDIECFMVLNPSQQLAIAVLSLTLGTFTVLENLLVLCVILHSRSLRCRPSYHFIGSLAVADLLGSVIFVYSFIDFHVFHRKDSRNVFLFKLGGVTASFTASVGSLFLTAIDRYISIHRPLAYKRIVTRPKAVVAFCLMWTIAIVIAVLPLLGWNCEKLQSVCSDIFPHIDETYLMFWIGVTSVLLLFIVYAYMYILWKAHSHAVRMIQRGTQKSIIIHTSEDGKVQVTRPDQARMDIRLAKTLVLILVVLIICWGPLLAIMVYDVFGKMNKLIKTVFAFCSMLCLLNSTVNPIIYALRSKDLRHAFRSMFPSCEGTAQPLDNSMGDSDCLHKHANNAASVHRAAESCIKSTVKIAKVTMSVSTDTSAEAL
(§1) Data Analysis: For calcium mobilization experiments, data were fit to a three-parameter logistic curve to generate IC50 values (GraphPad Prism 6.0, Graphpad Software, San Diego, California, United States of America). For [^35S]GTPγS experiments, data were normalized to maximal CP55,940 (100 nM) stimulation in the absence of test compound (i.e., vehicle=100%).
(In general: Calcium assays in cells follow changes in intracellular calcium, usually with a dye or a luminescent sensor.)

Series [3] is described as follows: Kinetic solubility assessment. It counts as physicochemical. As to conditions: phosphate buffer solution, 2 hours at room temperature, target 400 μM. On the procedure: The solution was agitated on a VX-2500 multi-tube vortexer (VWR International, Radnor, Pennsylvania, United States of America) for 2 hours at room temperature. Following agitation, the sample was filtrated on a glass-fiber filter (1 μm) and the eluate was diluted 400-fold with a mixture of acetonitrile: water (1:1). On each experimental occasion, nicardipine and imipramine were assessed as reference compounds for low and high solubility, respectively. All samples were assessed in triplicate and analyzed by LC-MS/MS using electrospray ionization against standards prepared in the same matrix.

Series [4] deals with rats. The series can be described thus: Locomotion in rats. Format: in vivo, rat. As to conditions: 5.6 mg/kg i.p.
Another series can be described thus: Plasma protein binding. It counts as in vitro ADME.
The next series concerns MDCK-mdr1 cells. The series can be described thus: Bidirectional MDCK-MDR1 permeability assay. Format: in vitro ADME. As to the method:
Permeability Assessment. Bidirectional MDCK-MDR1 permeability assay was performed by Paraza Pharma Inc. (Montreal, Canada). MDCK-mdr1 cells at passage 5 were seeded onto permeable polycarbonate supports in 12-well Costar Transwell plates and allowed to grow and differentiate for 3 days. On day 3, culture medium (DMEM supplemented with 10% FBS) was removed from both sides of the transwell inserts and cells were rinsed with warm HBSS. After the rinse step, the chambers were filled with warm transport buffer (HBSS containing 10 mM HEPES, 0.25% BSA, pH 7.4) and the plates were incubated at 37° C. for 30 min prior to TEER (Trans Epithelial Electric Resistance) measurements.
The buffer in the donor chamber (apical side for A-to-B assay, basolateral side for B-to-A assay) was removed and replaced with the working solution (10 μM test article in transport buffer). The plates were then placed at 37° C. under light agitation. At designated time points (30, 60 and 90 min), an aliquot of transport buffer from the receiver chamber was removed and replenished with fresh transport buffer. Samples were quenched with ice-cold ACN containing internal standard and then centrifuged to pellet protein. Resulting supernatants are further diluted with 50/50 ACN/H2O (H2O only for Atenolol) and submitted for LC-MS/MS analysis. Reported apparent permeability (Papp) values were calculated from single determination. Atenolol and propranolol were tested as low and moderate permeability references.
The apparent permeability (Papp, measured in cm/s) of a compound is determined according to the following formula from two independent experiments in duplicate: […]
where dQ/dt is the net rate of appearance in the receiver compartment; A is the area of the Transwell measured in cm^2 (1.12 cm^2); Ci is the initial concentration of compound added to the donor chamber; and 60 is the conversion factor for minute to second.

Series [5] has as its target T1, Human CB1. In words: Human CB1 HEK293 membrane [35S]GTPγS binding assay. Format: biochemical. As to conditions: HEK293 membranes expressing human CB1, in presence of CP55,940, mean ± SEM; for IC50: read-out: Human CB1 HEK293 membrane [35S]GTPγS binding assay pIC50 ± SEM (converted). On the procedure: Non-specific binding was determined by adding 30 μM unlabeled GTPγS.
as §1
In general terms: GTPγS is a poorly hydrolysed GTP analogue; its binding reports G protein activation.

The target in the next series is Mouse CB1 (Mus musculus (Mouse), UniProt P47746). The series can be described thus: Mouse CB1 [35S]GTPγS binding assay (ICR mouse cerebellum membranes). It counts as biochemical. As to conditions: in presence of CP55,940, mean ± SEM. On the procedure:
[^35S]GTPγS Binding Assay: For receptor signaling, membranes (10 μg protein) from either ICR mouse cerebellum mice (6-8 weeks old; Enviga International, Indianapolis, Indiana, United States of America) or HEK cells stably expressing CB1 receptor were preincubated in assay buffer for 10 min with 3 units/ml adenosine deaminase then incubated for 60 min at 30° C. with 30 μM GDP and 0.1 nM [^35S]GTPγS (Perkin Elmer Life Sciences, Boston, Massachusetts, United States of America). Non-specific binding was determined by adding 30 μM unlabeled GTPγS.
as §1

In series [6] the test system is rats. As to conditions: cited from earlier work.
The conditions of series [7]: in vivo; cited from earlier work.
Series [8] concerns rats. As to conditions: 10 mg/kg; cited from earlier work.

The term solubility (kinetic) denotes solubility judged after dilution from a stock solution rather than from solid.

Sequence of Mouse CB1 (P47746 whole entry): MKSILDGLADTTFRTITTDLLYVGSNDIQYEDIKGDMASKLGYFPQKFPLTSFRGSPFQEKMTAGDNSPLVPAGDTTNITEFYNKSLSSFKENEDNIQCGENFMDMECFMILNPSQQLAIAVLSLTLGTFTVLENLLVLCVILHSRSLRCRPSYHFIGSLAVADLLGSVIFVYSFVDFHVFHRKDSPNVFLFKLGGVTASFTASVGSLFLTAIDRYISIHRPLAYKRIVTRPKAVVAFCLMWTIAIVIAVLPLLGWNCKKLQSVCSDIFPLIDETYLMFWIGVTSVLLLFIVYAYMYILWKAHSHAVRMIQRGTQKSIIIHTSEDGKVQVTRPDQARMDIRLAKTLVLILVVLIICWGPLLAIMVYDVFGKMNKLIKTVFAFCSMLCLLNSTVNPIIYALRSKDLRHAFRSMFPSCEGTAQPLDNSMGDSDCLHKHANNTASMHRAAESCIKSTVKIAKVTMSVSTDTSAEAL

Consider `O=c1c(NCCc2cccc(Cl)c2)c(Nc2ccc(Cl)cc2)c1=O` [Compound 7, 3-[(4-Chlorophenyl)amino]-4-{[2-(3-chlorophenyl)ethyl]amino}cyclobut-3-ene-1,2-dione], for which, in series [1] (NADPH, 37° C.), the microsomal CLint was found to be 34.7 µL/min/mg and the half-life is 40 min. The “Metabolic stability in rat liver microsomes compared with PSNCBAM-1” value in [1] (versus PSNCBAM-1) is listed as “better metabolic stability”. Also, the IC50 on Human CB1 [2] amounted to 130 ± 12 nM. Also, the kinetic solubility at 2 h in [3] is <1 µM. Besides, the Effect on locomotion result in the series with rats [4] is reported as “without affecting locomotion”. The Effect on locomotion result in the series on rats [4] (listed as Compound 6) is on record as “did not affect locomotion”. The “% Plasma Protein Bound” value in “Plasma protein binding” is >99.74%. Also, the “Efflux ratio BA/AB” value with MDCK-mdr1 cells (MDCK-MDR1) is 2.1. For the same molecule, the “Papp A to B (x10^-6 cm/s)” value in the series on MDCK-mdr1 cells (MDCK-MDR1, 10 μM, apical to basolateral) was 3.1 x10^-6 cm/s. For the same molecule, in the series on MDCK-mdr1 cells (MDCK-MDR1, 10 μM, basolateral to apical), the “Papp B to A (x10^-6 cm/s)” value is recorded as 6.4 x10^-6 cm/s.

As for `O=c1c(NCCc2ccccc2)c(Nc2ccc(Cl)cc2)c1=O` [Compound 11, 3-[(4-Chlorophenyl)amino]-4-[(2-phenylethyl)amino]cyclobut-3-ene-1,2-dione], the values for the IC50 at Human CB1 [5] and on Human CB1 [2] were 776 nM and 210 ± 39 nM, respectively.

For `N#Cc1ccc(Nc2c(NCCc3cccc(Cl)c3)c(=O)c2=O)cc1` [Compound 28, 4-[(2-{[2-(3-Chlorophenyl)ethyl]amino}-3,4-dioxocyclobut-1-en-1-yl)amino]benzonitrile], the IC50 at Human CB1 [5] was 398 nM; at Human CB1 [2], 460 ± 66 nM.

In the case of `O=c1c(Nc2ccc(Cl)cc2)c(Nc2cccc(-c3ccc(F)cc3)c2)c1=O` [Compound 33, 3-[(4-Chlorophenyl)amino]-4-[(4′-fluorobiphenyl-3-yl)amino]cyclobut-3-ene-1,2-dione], the figures for the IC50 at Human CB1 [5], on Human CB1 [2] and at Mouse CB1 (read-out: Mouse CB1 [35S]GTPγS binding assay pIC50 ± SEM (converted)) were 501 nM, 575 ± 100 nM and 110 nM, respectively. Also, the microsomal CLint in series [1] (NADPH, 37° C.) is 59.6 µL/min/mg. Besides, in series [1] (NADPH, 37° C.), the half-life came to 23.7 min. For the same molecule, the kinetic solubility at 2 h in [3] (aqueous buffer, kinetic from dmso stock) was < 1 µM. The “% Plasma Protein Bound” value in the series “Plasma protein binding” is 99%.

As to `CC(=O)c1ccc(CCNc2c(Nc3ccc(Cl)cc3)c(=O)c2=O)cc1` [Compound 40, 3-{[2-(A-acetylphenyl)ethyl]amino}-4-[(4-chlorophenyl)amino]cyclobut-3-ene-1,2-dione], the “Human CB1 HEK293 membrane [35S]GTPγS binding assay pIC50 ± SEM” value at Human CB1 [5] is given as 6.77 ± 0.04. Besides, at Human CB1 [2], the IC50 was determined as 350 ± 10 nM. For the same molecule, the “Mouse CB1 [35S]GTPγS binding assay pIC50 ± SEM” value at Mouse CB1 is on record as 6.70 ± 0.09.

For `O=c1c(NCCc2ccc(F)cc2F)c(Nc2ccc(Cl)cc2)c1=O` [Compound 47, 3-[(4-Chlorophenyl)amino]-4-{[2-(2,4-difluorophenyl)ethyl]amino}cyclobut-3-ene-1,2-dione], the “Human CB1 HEK293 membrane [35S]GTPγS binding assay pIC50 ± SEM” value at Human CB1 [5] worked out at 6.84 ± 0.08. Moreover, on Human CB1 [2], the IC50 came to 362 ± 30 nM. For the same molecule, the “Mouse CB1 [35S]GTPγS binding assay pIC50 ± SEM” value on Mouse CB1 amounted to 6.61 ± 0.19.

For the molecule `O=C(Nc1ccc(Cl)cc1)Nc1cccc(-c2cccc(N3CCCC3)n2)c1` [PSNCBAM-1, reference compound], the “Rat Liver microsome T1/2” value in series [1] (0.5 mg/mL protein, NADPH, 37° C.) worked out at 13 min. Moreover, in the series with rats [6], the “Food intake and body weight in rats” value was “reduces food intake and body weight”.

Turning to `N#Cc1ccc(NC(=O)Nc2cccc(-c3cccc(N4CCCC4)n3)c2)cc1` [RTICBM-28], in [7], the “THC's potency in drug discrimination” value was “reduces THC's potency in drug discrimination”.

Consider `O=C(NCCc1cccc(Cl)c1)Nc1ccc(Cl)cc1` [RTICBM-189], for which the “Drug-induced reinstatement of cocaine seeking in rats” value in the series on rats [8] was “attenuates drug-induced restatement of cocaine seeking”.

Values taken from US20260062376A1, “SQUARAMIDE DERIVATIVES AS CB1 ALLOSTERIC MODULATORS” (RESEARCH TRIANGLE INSTITUTE, priority 2022, published 2026).
